16 compounds from article PMC7901646, “Pyrrolo[2′,3′:3,4]cyclohepta[1,2-d][1,2]oxazoles, a New Class of Antimitotic Agents Active against Multiple Malignant Cell Types” (Journal of Medicinal Chemistry, 2020) can be followed below.

Holding throughout (test): MTT cell proliferation, lymphoma
Common to all, as to format: cell-based

One assay relates to HBL1 (ABC DLBCL). As to conditions: Homo sapiens, 72 h; for activity at 1 µM: of untreated cells, read-out: Proliferating cells (%); for IC50: MTT. Here is the method:
(§1) All compounds were further tested at the concentration of 1 μM on four cell lines derived from distinct lymphoma histotypes, plus two with secondary resistance to the PI3Kδ inhibitor idelalisib[51] or to the BTK inhibitor ibrutinib.[52] […] For comparison, the same experiments were conducted using compound 3, but the response to it was minimal, and thus it was not considered further.
(§2) Established human cell lines derived from germinal center B-cell (GCB) (SU-DHL-10), activated B-cell (ABC) (HBL1) diffuse large B-cell lymphoma (DLBCL), mantle cell lymphoma (MCL) (MINO), splenic marginal zone lymphoma (SMZL) (parental VL51, VL51 idelalisib resistant clone, VL51 ibrutinib resistant clone) were cultured in culture RPMI-1640 media supplemented with fetal bovine serum (10%), penicillin–streptomycin–neomycin (∼5,000 units of penicillin, 5 mg of streptomycinm and 10 mg of neomycin/mL, Sigma), and L-glutamine (1%). Vincristine sulfate was purchased from Sigma-Aldrich. Cell line identities were confirmed by CellCheck test (IDEXX, BioResearch, Ludwigsburg, Germany). All compounds were dissolved in dimethyl sulfoxide to obtain a stock concentration of 10 mM.
(§3) The antiproliferative activity of all compounds was assessed by using the 3-(4.5-dimethylthiazolyl-2)-2,5-diphenyltetrazolium bromide (MTT) test. Cells were seeded in 96-well plates (nontissue culture treated) at a density of 1 × 10^5 cells/mL and treated with a single concentration of 1 μM for 72 h. […] In this case, cells were treated in triplicate with serially diluted compounds in the appropriate tissue culture medium at a range of 40–10 000 nM. Cells were incubated for 72 h at 37 °C, 5% CO2. Wells containing medium only were included on each plate and served as blanks for absorbance readings. MTT (Sigma, Buchs, Switzerland) was prepared as a 5 mg/mL stock solution in phosphate buffered saline (PBS) and filter-sterilized. MTT solution (22 μL) was added to each well, and tissue culture plates were incubated at 37 °C for 4 h. Cells were then lysed with 25% sodium dodecyl sulfate lysis buffer, and absorbance was read at 570 nm using a Beckman Coulter-AD340 plate reader.

A further assay has as its system MINO (MCL). As to conditions: Homo sapiens, 72 h; for activity at 1 µM: of untreated cells, read-out: Proliferating cells (%); for IC50: MTT. The protocol:
as §1, §2, §3

Another assay relates to SU-DHL-10 (GCB DLBCL). As to conditions: Homo sapiens, SU-DHL10, 72 h; for activity at 1 µM: of untreated cells, read-out: Proliferating cells (%); for IC50: MTT. The protocol:
as §1, §2, §3

For a further assay, the system named is VL51 (MZL). As to conditions: Homo sapiens, 72 h; for activity at 1 µM: of untreated cells, read-out: Proliferating cells (%); for IC50: MTT. The protocol: as §1, §2, §3
Another assay concerns VL51 ibrutinib-resistant. Particulars: Homo sapiens, 72 h, of untreated cells, read-out: Proliferating cells (%). The protocol: as §1, §2, §3
Assay [1] deals with VL51 idelalisib-resistant. Particulars: Homo sapiens, 72 h, of untreated cells, read-out: Proliferating cells (%). Here is the method: as §1, §2, §3

As for `O=S(=O)(c1ccccc1)n1ccc2c1-c1oncc1CCC2` [Compound 51, 9-(Phenylsulfonyl)-4,5,6,9-tetrahydropyrrolo[2′,3′:3,4]cyclohepta[1,2-d][1,2]oxazole], the activity at 1 µM was 118% with HBL1 (ABC DLBCL); 104% with MINO (MCL); 110% in the assay with SU-DHL-10 (GCB DLBCL); 88.1% with VL51 (MZL); 121% in the assay with VL51 ibrutinib-resistant; 118% in assay [1].

Consider `Cn1ccc2c1-c1oncc1CCC2` [Compound 52, 9-Methyl-4,5,6,9-tetrahydropyrrolo[2′,3′:3,4]cyclohepta[1,2-d][1,2]oxazole], for which the activity at 1 µM came out at 101% in the assay with HBL1 (ABC DLBCL); 104% in the assay on MINO (MCL); 70.2% with SU-DHL-10 (GCB DLBCL); 87.4% in the assay with VL51 (MZL); 100% with VL51 ibrutinib-resistant; 107% in assay [1].

Regarding `c1ccc(Cn2ccc3c2-c2oncc2CCC3)cc1` [Compound 53, 9-Benzyl-4,5,6,9-tetrahydropyrrolo[2′,3′:3,4]cyclohepta[1,2-d][1,2]oxazole], the activity at 1 µM in the assay with HBL1 (ABC DLBCL) stood at 109%; in the assay on MINO (MCL), 109%; with SU-DHL-10 (GCB DLBCL) it was 70.2%; in the assay with VL51 (MZL), 103%; in the assay with VL51 ibrutinib-resistant, 125%; in assay [1], 128%.

Take `COc1ccccc1Cn1ccc2c1-c1oncc1CCC2` [Compound 54, 9-(2-Methoxybenzyl)-4,5,6,9-tetrahydropyrrolo[2′,3′:3,4]cyclohepta[1,2-d][1,2]oxazole]: the activity at 1 µM is 122% in the assay on HBL1 (ABC DLBCL); 112% in the assay with MINO (MCL); 141% in the assay on SU-DHL-10 (GCB DLBCL); 120% with VL51 (MZL); 112% in the assay with VL51 ibrutinib-resistant; 136% in assay [1].

For `COc1cccc(Cn2ccc3c2-c2oncc2CCC3)c1` [Compound 55, 9-(3-Methoxybenzyl)-4,5,6,9-tetrahydropyrrolo[2′,3′:3,4]cyclohepta[1,2-d][1,2]oxazole], the activity at 1 µM with HBL1 (ABC DLBCL) is 127%; in the assay on MINO (MCL), 115%; in the assay on SU-DHL-10 (GCB DLBCL), 80.3%; with VL51 (MZL) it was 112%; in the assay with VL51 ibrutinib-resistant it was 125%; in assay [1] it was 133%.

On to `COc1cc(Cn2ccc3c2-c2oncc2CCC3)cc(OC)c1OC` [Compound 59, 9-(3,4,5-Trimethoxybenzyl)-4,5,6,9-tetrahydropyrrolo[2′,3′:3,4]cyclohepta[1,2-d][1,2]oxazole], for which the activity at 1 µM in the assay on HBL1 (ABC DLBCL) came to 114%; in the assay on MINO (MCL), 99%; with SU-DHL-10 (GCB DLBCL), 94.6%; in the assay on VL51 (MZL), 97.6%; with VL51 ibrutinib-resistant it was 92.1%; in assay [1], 112%.

With `CCOC(=O)c1cc2c(n1C)-c1oncc1CCC2` [Compound 60, Ethyl 9-Methyl-4,5,6,9-tetrahydropyrrolo[2′,3′:3,4]cyclohepta[1,2-d][1,2]oxazole-8-carboxylate], the activity at 1 µM is 146% in the assay on HBL1 (ABC DLBCL); 112% with MINO (MCL); 61.7% in the assay with SU-DHL-10 (GCB DLBCL); 108% in the assay on VL51 (MZL); 125% in the assay with VL51 ibrutinib-resistant; 115% in assay [1].

As to `CCOC(=O)c1cc2c(n1Cc1ccccc1)-c1oncc1CCC2` [Compound 61, Ethyl 9-Benzyl-4,5,6,9-tetrahydropyrrolo[2′,3′:3,4]cyclohepta[1,2-d][1,2]oxazole-8-carboxylate], the activity at 1 µM in the assay with HBL1 (ABC DLBCL) was found to be 124%; in the assay with MINO (MCL), 106%; in the assay with SU-DHL-10 (GCB DLBCL), 65.2%; in the assay with VL51 (MZL), 93.3%; in the assay with VL51 ibrutinib-resistant, 118%; in assay [1], 117%.

As for `CCOC(=O)c1cc2c(n1Cc1ccc(OC)cc1)-c1oncc1CCC2` [Compound 64, Ethyl 9-(4-Methoxybenzyl)-4,5,6,9-tetrahydropyrrolo[2′,3′:3,4]cyclohepta[1,2-d][1,2]oxazole-8-carboxylate], the activity at 1 µM with HBL1 (ABC DLBCL) is 125%; in the assay on MINO (MCL), 112%; in the assay with SU-DHL-10 (GCB DLBCL), 66.3%; in the assay with VL51 (MZL) it was 87.4%; with VL51 ibrutinib-resistant, 102%; in assay [1] it was 116%.

With `CCOC(=O)c1cc2c(n1Cc1cc(OC)ccc1OC)-c1oncc1CCC2` [Compound 65, Ethyl 9-(2,5-Dimethoxybenzyl)-4,5,6,9-tetrahydropyrrolo[2′,3′:3,4]cyclohepta[1,2-d][1,2]oxazole-8-carboxylate], the activity at 1 µM in the assay with HBL1 (ABC DLBCL) is 111%; with MINO (MCL), 107%; in the assay with SU-DHL-10 (GCB DLBCL), 71.6%; in the assay on VL51 (MZL) it was 86.2%; with VL51 ibrutinib-resistant it was 94%; in assay [1], 96.4%.

As to `COC(=O)c1cc2c(n1Cc1ccccc1)-c1oncc1CCC2` [Compound 68, Methyl 9-Benzyl-4,5,6,9-tetrahydropyrrolo[2′,3′:3,4]cyclohepta[1,2-d][1,2]oxazole-8-carboxylate], the activity at 1 µM is 109% in the assay with HBL1 (ABC DLBCL); 98.8% in the assay on MINO (MCL); 78.9% with SU-DHL-10 (GCB DLBCL); 94.5% with VL51 (MZL); 120% with VL51 ibrutinib-resistant; 123% in assay [1].

Turning to `CCOC(=O)c1c(Cl)c2c(n1C)-c1oncc1CCC2` [Compound 69, Ethyl 7-Chloro-9-methyl-4,5,6,9-tetrahydropyrrolo[2′,3′:3,4]cyclohepta[1,2-d][1,2]oxazole-8-carboxylate], the activity at 1 µM in the assay on HBL1 (ABC DLBCL) came out at 103%; in the assay on MINO (MCL) it was 116%; in the assay on SU-DHL-10 (GCB DLBCL), 78.5%; in the assay with VL51 (MZL), 93.8%; with VL51 ibrutinib-resistant, 110%; in assay [1] it was 121%.

In the case of `CCOC(=O)c1c(Cl)c2c(n1Cc1ccccc1OC)-c1oncc1CCC2` [Compound 71, Ethyl 7-Chloro-9-(2-methoxybenzyl)-4,5,6,9-tetrahydropyrrolo[2′,3′:3,4]cyclohepta[1,2-d][1,2]oxazole-8-carboxylate], the activity at 1 µM stood at 97% in the assay with HBL1 (ABC DLBCL); 55.9% in the assay on MINO (MCL); 58.2% with SU-DHL-10 (GCB DLBCL); 58.8% with VL51 (MZL); 56.2% in the assay on VL51 ibrutinib-resistant; 52.2% in assay [1]. Also, the IC50 was more than 5 µM in the assay with HBL1 (ABC DLBCL), 3.4 µM in the assay with MINO (MCL), 2.2 µM with SU-DHL-10 (GCB DLBCL) and 2.4 µM with VL51 (MZL).

In the case of `CCOC(=O)c1c(Cl)c2c(n1Cc1cccc(OC)c1)-c1oncc1CCC2` [Compound 72, Ethyl 7-Chloro-9-(3-methoxybenzyl)-4,5,6,9-tetrahydropyrrolo[2′,3′:3,4]cyclohepta[1,2-d][1,2]oxazole-8-carboxylate], the activity at 1 µM in the assay on HBL1 (ABC DLBCL) is 105%; in the assay on MINO (MCL), 110%; in the assay with SU-DHL-10 (GCB DLBCL) it was 76.9%; in the assay on VL51 (MZL) it was 107%; in the assay with VL51 ibrutinib-resistant it was 103%; in assay [1], 128%.

As to `CCOC(=O)c1c(Cl)c2c(n1Cc1ccc(OC)cc1)-c1oncc1CCC2` [Compound 73, Ethyl 7-Chloro-9-(4-methoxybenzyl)-4,5,6,9-tetrahydropyrrolo[2′,3′:3,4]cyclohepta[1,2-d][1,2]oxazole-8-carboxylate], the activity at 1 µM in the assay on HBL1 (ABC DLBCL) was 107%; in the assay with MINO (MCL), 99.5%; in the assay on SU-DHL-10 (GCB DLBCL) it was 87.4%; in the assay on VL51 (MZL) it was 113%; with VL51 ibrutinib-resistant, 102%; in assay [1], 126%.

As for `CCOC(=O)c1c(Cl)c2c(n1Cc1cc(OC)ccc1OC)-c1oncc1CCC2` [Compound 74, Ethyl 7-Chloro-9-(2,5-dimethoxybenzyl)-4,5,6,9-tetrahydropyrrolo[2′,3′:3,4]cyclohepta[1,2-d][1,2]oxazole-8-carboxylate], the activity at 1 µM was 29% with HBL1 (ABC DLBCL); 9.8% with MINO (MCL); 13.3% in the assay with SU-DHL-10 (GCB DLBCL); 40.4% in the assay with VL51 (MZL); 44.4% in the assay on VL51 ibrutinib-resistant; 37.7% in assay [1]. Besides, the IC50 stood at 1 µM in the assay on HBL1 (ABC DLBCL), 0.8 µM with MINO (MCL), 0.7 µM in the assay with SU-DHL-10 (GCB DLBCL) and 0.5 µM in the assay with VL51 (MZL).
